Measurements from patent publication US20070049564A1 (Wyeth, priority 2005, published 2007).
Values after ≈ are worked out from the molar mass of the structure shown. Where two headings read alike, the source gives them in different places.

Legend:
S. aureus GC 4536 = test: MIC, broth microdilution; conditions: Staphylococcus aureus
E. faecium GC 2243 = test: MIC, broth microdilution; conditions: Enterococcus faecium
S. epidermidis GC 4935 = test: MIC, broth microdilution; conditions: Staphylococcus epidermidis
c. albicans GC 3066 = test: MIC, broth microdilution
E. coli GC 6465 = test: MIC, broth microdilution; conditions: Escherichia coli
E. coli GC 2272 = test: MIC, broth microdilution; conditions: Escherichia coli
E. coli GC 2234 = test: MIC, broth microdilution; conditions: Escherichia coli
E. coli GC 1073 = test: MIC, broth microdilution; conditions: Escherichia coli
E. faecalis GC 4555 = test: MIC, broth microdilution; conditions: Enterococcus faecalis
Staph. = test: Range of MIC for Staph. strains, including MRSA; conditions: Staphylococcus aureus
E. coli GC 2236 = test: MIC, broth microdilution; conditions: Escherichia coli
S. aureus GC 6469 = test: MIC, broth microdilution; conditions: Staphylococcus aureus
S. pyogenes GC 4563 = test: MIC, broth microdilution; conditions: Streptococcus pyogenes
S. aureus GC 1079 = test: MIC, broth microdilution; conditions: Staphylococcus aureus
E. coli GC 2233 = test: MIC, broth microdilution; conditions: Escherichia coli
S. pneumoniae+ GC 4465 = test: MIC, broth microdilution; conditions: Streptococcus pneumoniae
S. aureus GC 1131 = test: MIC, broth microdilution; conditions: Staphylococcus aureus
E. faecalis GC 2265 = test: MIC, broth microdilution; conditions: Enterococcus faecalis
S. aureus GC 6466 = test: MIC, broth microdilution; conditions: Staphylococcus aureus
E. coli = test: Range of MIC for E. coli strains; conditions: Escherichia coli

MIC (S. aureus GC 4536; GC4536, read-out: MINIMAL INHIBITORY CONCENTRATION MIC, Human Serum): 0.25 µg/mL (≈ 0.349 µM)
MIC (S. aureus GC 4536; GC4536, read-out: MINIMAL INHIBITORY CONCENTRATION MIC, Mouse Serum): 0.25 µg/mL (≈ 0.349 µM)
MIC (S. aureus GC 4536; GC4536, read-out: MINIMAL INHIBITORY CONCENTRATION MIC, Water): 0.25 µg/mL (≈ 0.349 µM)
MIC (E. faecium GC 2243; GC2243, read-out: MINIMAL INHIBITORY CONCENTRATION MIC, Human Serum): 0.25 µg/mL (≈ 0.349 µM)
MIC (E. faecium GC 2243; GC2243, read-out: MINIMAL INHIBITORY CONCENTRATION MIC, Mouse Serum): 0.25 µg/mL (≈ 0.349 µM)
MIC (E. faecium GC 2243; GC2243, read-out: MINIMAL INHIBITORY CONCENTRATION MIC, Water): 0.5 µg/mL (≈ 0.699 µM)
MIC (S. epidermidis GC 4935; GC4935, read-out: MINIMAL INHIBITORY CONCENTRATION MIC, Human Serum): 1 µg/mL (≈ 1.4 µM)
MIC (S. epidermidis GC 4935; GC4935, read-out: MINIMAL INHIBITORY CONCENTRATION MIC, Mouse Serum): 1 µg/mL (≈ 1.4 µM)
MIC (S. epidermidis GC 4935; GC4935, read-out: MINIMAL INHIBITORY CONCENTRATION MIC, Water): 2 µg/mL (≈ 2.79 µM)
MIC (c. albicans GC 3066; Candida albicans, GC3066, read-out: MINIMAL INHIBITORY CONCENTRATION MIC): > 64 µg/mL
MINIMAL INHIBITORY CONCENTRATION MIC (c. albicans GC 3066; Human Serum): >64 UG/ML
MINIMAL INHIBITORY CONCENTRATION MIC (c. albicans GC 3066; Mouse Serum): >64 UG/ML
MIC (E. coli GC 6465; GC6465, read-out: MINIMAL INHIBITORY CONCENTRATION MIC, Human Serum): 32 µg/mL (≈ 44.7 µM)
MIC (E. coli GC 6465; GC6465, read-out: MINIMAL INHIBITORY CONCENTRATION MIC, Mouse Serum): 2 µg/mL (≈ 2.79 µM)
MIC (E. coli GC 6465; GC6465, read-out: MINIMAL INHIBITORY CONCENTRATION MIC, Water): > 64 µg/mL
MIC (E. coli GC 2272; GC2272, read-out: MINIMAL INHIBITORY CONCENTRATION MIC, Human Serum): 2 µg/mL (≈ 2.79 µM)
MIC (E. coli GC 2272; GC2272, read-out: MINIMAL INHIBITORY CONCENTRATION MIC, Mouse Serum): 0.5 µg/mL (≈ 0.699 µM)
MIC (E. coli GC 2272; GC2272, read-out: MINIMAL INHIBITORY CONCENTRATION MIC, Water): 8 µg/mL (≈ 11.2 µM)
MIC (E. coli GC 2234; GC2234, read-out: MINIMAL INHIBITORY CONCENTRATION MIC, Human Serum): 4 µg/mL (≈ 5.59 µM)
MIC (E. coli GC 2234; GC2234, read-out: MINIMAL INHIBITORY CONCENTRATION MIC, Mouse Serum): 0.25 µg/mL (≈ 0.349 µM)
MIC (E. coli GC 2234; GC2234, read-out: MINIMAL INHIBITORY CONCENTRATION MIC, Water): 16 µg/mL (≈ 22.4 µM)
MIC (E. coli GC 1073; GC1073, read-out: MINIMAL INHIBITORY CONCENTRATION MIC, Human Serum): 8 µg/mL (≈ 11.2 µM)
MIC (E. coli GC 1073; GC1073, read-out: MINIMAL INHIBITORY CONCENTRATION MIC, Mouse Serum): 0.5 µg/mL (≈ 0.699 µM)
MIC (E. coli GC 1073; GC1073, read-out: MINIMAL INHIBITORY CONCENTRATION MIC, Water): 32 µg/mL (≈ 44.7 µM)
MIC (E. faecalis GC 4555; GC4555, read-out: MINIMAL INHIBITORY CONCENTRATION MIC, Human Serum): 0.5 µg/mL (≈ 0.699 µM)
MIC (E. faecalis GC 4555; GC4555, read-out: MINIMAL INHIBITORY CONCENTRATION MIC, Mouse Serum): 0.25 µg/mL (≈ 0.349 µM)
MIC (E. faecalis GC 4555; GC4555, read-out: MINIMAL INHIBITORY CONCENTRATION MIC, Water): 4 µg/mL (≈ 5.59 µM)
MIC (Staph.; MRSA, read-out: Range of MIC, Staph (Mouse Serum)): 0.12 to 1 µg/mL (≈ 0.168 to 1.4 µM)
MIC (Staph.; MRSA, read-out: Range of MIC, Staph (Water)): 0.12 to 2 µg/mL (≈ 0.168 to 2.79 µM)
MIC (Staph.; read-out: Minimum inhibitory concentration (MIC), Staph (Human Serum)): 0.12 to 1 µg/mL (≈ 0.168 to 1.4 µM)
MIC (Staph.; read-out: Minimum inhibitory concentration (MIC), Staph (Water)): 0.12 to 2 µg/mL (≈ 0.168 to 2.79 µM)
MIC (E. coli GC 2236; GC2236, read-out: MINIMAL INHIBITORY CONCENTRATION MIC, Human Serum): 4 µg/mL (≈ 5.59 µM)
MIC (E. coli GC 2236; GC2236, read-out: MINIMAL INHIBITORY CONCENTRATION MIC, Mouse Serum): 0.5 µg/mL (≈ 0.699 µM)
MIC (E. coli GC 2236; GC2236, read-out: MINIMAL INHIBITORY CONCENTRATION MIC, Water): 16 µg/mL (≈ 22.4 µM)
MIC (S. aureus GC 6469; GC6469, read-out: MINIMAL INHIBITORY CONCENTRATION MIC, Human Serum): 1 µg/mL (≈ 1.4 µM)
MIC (S. aureus GC 6469; GC6469, read-out: MINIMAL INHIBITORY CONCENTRATION MIC, Mouse Serum): 1 µg/mL (≈ 1.4 µM)
MIC (S. aureus GC 6469; GC6469, read-out: MINIMAL INHIBITORY CONCENTRATION MIC, Water): 1 µg/mL (≈ 1.4 µM)
MIC (S. pyogenes GC 4563; GC4563, read-out: MINIMAL INHIBITORY CONCENTRATION MIC, Human Serum): 0.12 µg/mL (≈ 0.168 µM)
MIC (S. pyogenes GC 4563; GC4563, read-out: MINIMAL INHIBITORY CONCENTRATION MIC, Mouse Serum): 0.12 µg/mL (≈ 0.168 µM)
MIC (S. pyogenes GC 4563; GC4563, read-out: MINIMAL INHIBITORY CONCENTRATION MIC, Water): 0.12 µg/mL (≈ 0.168 µM)
MIC (S. aureus GC 1079; GC1079, read-out: MINIMAL INHIBITORY CONCENTRATION MIC, Human Serum): 0.5 µg/mL (≈ 0.699 µM)
MIC (S. aureus GC 1079; GC1079, read-out: MINIMAL INHIBITORY CONCENTRATION MIC, Mouse Serum): 0.5 µg/mL (≈ 0.699 µM)
MIC (S. aureus GC 1079; GC1079, read-out: MINIMAL INHIBITORY CONCENTRATION MIC, Water): 0.5 µg/mL (≈ 0.699 µM)
MIC (E. coli GC 2233; GC2233, read-out: MINIMAL INHIBITORY CONCENTRATION MIC, Human Serum): 4 µg/mL (≈ 5.59 µM)
MIC (E. coli GC 2233; GC2233, read-out: MINIMAL INHIBITORY CONCENTRATION MIC, Mouse Serum): 0.25 µg/mL (≈ 0.349 µM)
MIC (E. coli GC 2233; GC2233, read-out: MINIMAL INHIBITORY CONCENTRATION MIC, Water): 8 µg/mL (≈ 11.2 µM)
MIC (S. pneumoniae+ GC 4465; read-out: MINIMAL INHIBITORY CONCENTRATION MIC, Human Serum): 1 µg/mL (≈ 1.4 µM)
MIC (S. pneumoniae+ GC 4465; read-out: MINIMAL INHIBITORY CONCENTRATION MIC, Mouse Serum): 1 µg/mL (≈ 1.4 µM)
MIC (S. pneumoniae+ GC 4465; read-out: MINIMAL INHIBITORY CONCENTRATION MIC, Water): 1 µg/mL (≈ 1.4 µM)
MIC (S. aureus GC 1131; GC1131, read-out: MINIMAL INHIBITORY CONCENTRATION MIC, Human Serum): 0.5 µg/mL (≈ 0.699 µM)
MIC (S. aureus GC 1131; GC1131, read-out: MINIMAL INHIBITORY CONCENTRATION MIC, Mouse Serum): 0.5 µg/mL (≈ 0.699 µM)
MIC (S. aureus GC 1131; GC1131, read-out: MINIMAL INHIBITORY CONCENTRATION MIC, Water): 0.5 µg/mL (≈ 0.699 µM)
MIC (E. faecalis GC 2265; GC2265, read-out: MINIMAL INHIBITORY CONCENTRATION MIC, Human Serum): 1 µg/mL (≈ 1.4 µM)
MIC (E. faecalis GC 2265; GC2265, read-out: MINIMAL INHIBITORY CONCENTRATION MIC, Mouse Serum): 0.5 µg/mL (≈ 0.699 µM)
MIC (E. faecalis GC 2265; GC2265, read-out: MINIMAL INHIBITORY CONCENTRATION MIC, Water): 2 µg/mL (≈ 2.79 µM)
MIC (S. aureus GC 6466; GC6466, read-out: MINIMAL INHIBITORY CONCENTRATION MIC, Human Serum): 0.12 µg/mL (≈ 0.168 µM)
MIC (S. aureus GC 6466; GC6466, read-out: MINIMAL INHIBITORY CONCENTRATION MIC, Mouse Serum): 0.12 µg/mL (≈ 0.168 µM)
MIC (S. aureus GC 6466; GC6466, read-out: MINIMAL INHIBITORY CONCENTRATION MIC, Water): 0.12 µg/mL (≈ 0.168 µM)
MIC (E. coli; 20 h, read-out: Range of MIC, E. coli (Mouse Serum)): 0.25 to 2 µg/mL (≈ 0.349 to 2.79 µM)
MIC (E. coli; read-out: Minimum inhibitory concentration (MIC), E. coli (Human Serum)): 4 to 32 µg/mL (≈ 5.59 to 44.7 µM)
SMILES: CCC(=O)OCOC(=O)N(CC(=O)Nc1cc(N(C)C)c2c(c1O)C(=O)C1=C(O)[C@]3(O)C(=O)C(C(N)=O)=C(O)[C@@H](N(C)C)[C@@H]3C[C@@H]1C2)C(C)(C)C [Example 49, ({[(2-{[(5aR,6aS,7S,10aS)-9-(aminocarbonyl)-4,7-bis(dimethylamino)-1,8,10a,11-tetrahydroxy-10,12-dioxo-5,5a,6,6a,7,10,10a,12-octahydrotetracen-2-yl]amino}-2-oxoethyl)(tert-butyl)amino]carbonyl}oxy)methyl propionate]
